# Like-named read-outs stand apart in the source and are kept apart here.
# Legend:
# [1] = system: P. falciparum late stage (stages IV-V) gametocytes; assay: P. falciparum late stage gametocyte ATP depletion assay (Pf GC-ATP); conditions: 1: YES; 0: NO
# [2] = system: P. falciparum late stage (stages IV-V) gametocytes; design: method as in Almela et al 2016; conditions: ref Almela et al 2016, read-out: Pf GCT ATP IC50, cited from earlier work
# HepG2 cells [3] = assay: HepG2 cytotoxicity assay
# Summary of the method: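 HepG2 cells, 2,500 per well in MEM with 10% FBS and 1% NEAA, exposed to compounds for 48 h at 37°C, 5% CO2. Viability read by fluorescence; percent inhibition relative to 50 μM doxorubicin and DMSO controls.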
# HepG2 cells [4] = conditions: cited from earlier work
# [5] = system: P. falciparum female gametocytes; design: method as in Miguel-Blanco et al 2017; conditions: ref Miguel-Blanco et al 2017, read-out: Pf FGAA IC50, cited from earlier work
# [6] = system: P. falciparum female gametocytes; assay: P. falciparum female gametogenesis assay (Pf FGAA); conditions: 1: YES; 0: NO
# [7] = HepG2 values of the three screens unified
# [8] = HepG2 cytotoxicity unified across the three screens
# [9] = value reported with the Pf FGAA screen, ref Miguel-Blanco et al 2017
# [10] = value reported with the Pf GCT ATP screen, ref Almela et al 2016
SMILES,Is compound selective in assay? Pf GC-ATP active? [1],IC50 [2],Unified cytotox (HepG2 cells [3]; [7]),HepG2 cytoxicity (Pf GCT ATP screen) (HepG2 cells [4]; ref Almela et al 2016),HepG2 cytoxicity (Pf FGAA screen) (HepG2 cells [4]; ref Miguel-Blanco et al 2017),IC50 [5],Is compound selective in assay? Pf FGAA active? [6],IC50 ([2]; TCAMS screen comparison),Unified cytotox (HepG2 cells [3]; [8]),HepG2 cytoxicity (HepG2 cells [4]; [9]),HepG2 cytoxicity (HepG2 cells [4]; [10]),IC50 ([5]; TCAMS screen comparison)
COc1c(CCNCCCCNCCc2cc(Cl)c3ccccc3c2OC)cc(Cl)c2ccccc12.CS(=O)(=O)O [TCMDC-137869],1 (1: YES),0.08 µM,2.57 µM,3.36 µM,1.78 µM,0.33 µM,0 (0: NO),,,,,
CN(CCCNCc1ccc2ccccc2c1)CCCNCc1ccc2ccccc2c1.Cl [TCMDC-137908],1 (1: YES),0.05 µM,4.85 µM,4.68 µM,5.01 µM,0.09 µM,1 (1: YES),,,,,
COc1ccc2ccccc2c1CNCCCCCCNCc1c(OC)ccc2ccccc12.Cl [TCMDC-137915],1 (1: YES),0.25 µM,3.90 µM,3.59 µM,4.22 µM,0.7 µM,0 (0: NO),,,,,
COc1ccc2c(c1)CC(C)(C)NC2CCCCCCCCC1NC(C)(C)Cc2cc(OC)ccc21.O=C(O)C(=O)O (stereo not drawn) [TCMDC-137935],0 (0: NO),,,,,,0 (0: NO),0.79 µM,5.47 µM,5.62 µM,5.32 µM,1.47 µM
CCOc1cc(CNCCCCCCNCc2cc(OCC)c(OCC)c3ccccc23)c2ccccc2c1OCC.CS(=O)(=O)O [TCMDC-137939],0 (0: NO),0.75 µM,2.35 µM,2.7 µM,2.00 µM,1.78 µM,0 (0: NO),,,,,
COc1cc2ccccc2cc1CCNCCCCNCCc1cc2ccccc2cc1OC.CS(=O)(=O)O [TCMDC-137944],1 (1: YES),,,,,,0 (0: NO),0.11 µM,2.53 µM,1.66 µM,3.39 µM,0.62 µM
CCCOc1ccc(CCNCCCCNCCc2ccc(OCCC)c3ccccc23)c2ccccc12.CS(=O)(=O)O [TCMDC-137952],1 (1: YES),,,,,,0 (0: NO),0.08 µM,2.38 µM,2.16 µM,2.6 µM,0.61 µM
COc1ccc2c(OC)c(CNCCCCCCNCc3ccc4cc(OC)ccc4c3OC)ccc2c1.CS(=O)(=O)O [TCMDC-137953],0 (0: NO),,,,,,0 (0: NO),1.54 µM,2.66 µM,2.11 µM,3.2 µM,1 µM
CCCCCCOc1ccc2ccccc2c1CNCCCCCCNCc1c(OCCCCCC)ccc2ccccc12.CS(=O)(=O)O [TCMDC-137963],0 (0: NO),,,,,,0 (0: NO),0.48 µM,2.85 µM,2.40 µM,3.3 µM,1.5 µM
CC(C)Oc1ccc2ccccc2c1CNCCCCCCNCc1c(OC(C)C)ccc2ccccc12.CS(=O)(=O)O [TCMDC-137965],1 (1: YES),,,,,,0 (0: NO),0.14 µM,2.14 µM,1.91 µM,2.38 µM,0.95 µM
CCCOc1ccc2ccccc2c1CNCCCCCCNCc1c(OCCC)ccc2ccccc12.CS(=O)(=O)O [TCMDC-137966],0 (0: NO),,,,,,0 (0: NO),0.34 µM,2.55 µM,2.00 µM,3.1 µM,1.03 µM
CC(C)COc1ccc2ccccc2c1CNCCCCCCNCc1c(OCC(C)C)ccc2ccccc12.CS(=O)(=O)O [TCMDC-137972],1 (1: YES),,,,,,0 (0: NO),0.1 µM,2.03 µM,2.19 µM,1.88 µM,0.81 µM
CC(C)(C)c1ccc(-c2cc3c(ccc4nc(N)nc(N)c43)[nH]2)cc1 [TCMDC-137977],0 (0: NO),,,,,,0 (0: NO),0.55 µM,2.56 µM,1.86 µM,3.26 µM,0.77 µM
CC(C)(C)c1ccc(-c2nc3c(ccc4nc(N)nc(N)c43)[nH]2)cc1.Cl [TCMDC-137984],1 (1: YES),,,,,,1 (1: YES),0.21 µM,2.98 µM,2.12 µM,3.85 µM,0.26 µM
CCCCCCCCN1CCN(CCCCCCNc2c3ccccc3nc3ccccc23)CC1.Cl [TCMDC-138015],1 (1: YES),,,,,,0 (0: NO),0.25 µM,3.23 µM,3.35 µM,3.1 µM,0.64 µM
COc1cc2nc(NCc3cccc(CNC(=O)c4ccc(-c5ccc(C(C)=O)cc5)cc4)c3)nc(N)c2cc1OC.O=C(O)C(F)(F)F [TCMDC-138177],0 (0: NO),,,,,,0 (0: NO),2 µM,8.16 µM,6.82 µM,9.5 µM,4.73 µM
COc1cc2nc(N3CCN(C(=O)c4c(Cl)nsc4-c4ccccc4Cl)CC3)nc(N)c2cc1OC.O=C(O)C(F)(F)F [TCMDC-138186],1 (1: YES),,,,,,0 (0: NO),0.22 µM,7.04 µM,5.89 µM,8.18 µM,0.99 µM
Cc1ccc(C(=O)Nc2ccc(Nc3ccnc4cc(-c5ccccn5)ccc34)cc2O)cc1.Cl [TCMDC-138205],0 (0: NO),,,,,,0 (0: NO),0.48 µM,2.19 µM,1.27 µM,3.11 µM,0.54 µM
CN(C)CCNCc1ccc(-c2ccc3c(Nc4ccc(Oc5ccccc5)cc4)ccnc3c2)o1 [TCMDC-138399],1 (1: YES),,,,,,0 (0: NO),0.33 µM,6.63 µM,5.69 µM,7.57 µM,1.56 µM
CN(C)CCN(C)Cc1cccc(-c2ccc3c(Nc4ccc(F)cc4Cl)ccnc3c2)c1 [TCMDC-138416],1 (1: YES),,,,,,0 (0: NO),0.48 µM,4.85 µM,6.10 µM,3.6 µM,7.02 µM
CN(C)CCNCc1cccc(-c2ccc3c(Nc4ccc(Oc5ccccn5)cc4)ccnc3c2)c1 [TCMDC-138493],1 (1: YES),,,,,,0 (0: NO),0.22 µM,4.24 µM,3.98 µM,4.49 µM,0.82 µM
COc1cc2nc(N3CCC(CCCC4CCNCC4)CC3)nc(NCc3ccccn3)c2cc1OC.O=C(O)C(F)(F)F [TCMDC-138494],1 (1: YES),,,,,,0 (0: NO),0.4 µM,14.55 µM,18.51 µM,10.59 µM,6.86 µM
CN1CCN(CCCNCc2cccc(Nc3nccc(Nc4ccc(Oc5ccccc5)cc4)n3)c2)CC1 [TCMDC-138616],1 (1: YES),,,,,,0 (0: NO),0.32 µM,4.92 µM,4.68 µM,5.17 µM,0.98 µM
COc1cc2nc(N3CCC(CNC(=O)c4ccc(-c5ccc(-c6noc(C)n6)cc5)cc4)CC3)nc(N)c2cc1OC [TCMDC-138754],1 (1: YES),,,,,,0 (0: NO),0.11 µM,4.61 µM,4.90 µM,4.33 µM,1.05 µM

# — PMC6753678, “Fueling Open Innovation for Malaria Transmission-Blocking Drugs: Hundreds of Molecules Targeting Early Parasite Mosquito Stages” (Frontiers in Microbiology, 2019)
